From patent US20240287071A1, “CLASS OF IMIDAZOLIDINOPYRIMIDONE COMPOUNDS AND USE THEREOF IN TREATMENT OF HSCLPP-MEDIATED DISEASES” (SICHUAN UNIVERSITY, priority 2021, published 2024)
Read-outs that look alike come from different tables or passages of the source.

Assays:
[1] = tested on: SW620; assay: CCK-8 in vitro anti-tumor proliferation assay; type: cell-based; conditions: Homo sapiens, SW-620, 72 hours
Procedure: (§1) Example 3: In vitro anti-tumor proliferation assay of the compounds. The purpose of this experiment was to use CCK-8 to detect the in vitro inhibitory activity of the compounds of the present invention against the proliferation of tumor cells. The main reagents, such as RPMI-1640, DMEM high-glucose culture medium, fetal bovine serum, trypsin, etc., were purchased from Gibco BRL. CCK8 and DMSO were products of Sigma. For in vitro experiment, the test compounds were prepared as 10 mM stock solutions in DMSO and stored at −20° C. in the refrigerator in the dark for later use, then diluted to desired concentration with complete culture medium before use. The human lung cancer cells, colon cancer cells, breast cancer cells, glioblastoma cells, human myelomonocytic leukemia cells, and human Burkitt's lymphoma cells used in this experiment were all purchased from the American ATCC company and preserved in laboratory of the inventors. All the above cell lines were cultured in RPMI-1640 complete medium or DMEM complete medium containing 10% fetal bovine serum, 100 U/mL penicillin, and 100 μg/mL streptomycin under 5% carbon dioxide, 37° C. conditions. […] The previous culture medium was discarded, fresh culture medium was added to resuspend the cells, and then the cells were counted. According to the growth rate of different cells, the cell seeding concentration was determined, generally being 3000-5000 cells/well. After determining the seeding concentration, the cell suspension was diluted to desired concentrations with fresh culture medium, and then added to a 96-well plate with 100 μL per well, and 200 μL of PBS was added to the edge wells to prevent evaporation of the culture medium. On the second day, drug treatment was performed. First, the compounds were diluted into a series of gradients with culture medium, and then the drug solution was added to the 96-well plate, with 3 parallel wells for each gradient. Each plate set a blank control group, and ONC201 was used as the positive control group.

[2] = tested on: Raji; assay: CCK-8 in vitro anti-tumor proliferation assay; type: cell-based; conditions: Homo sapiens, read-out: IC50(uM) Raji
Procedure: as §1

[3] = tested on: DLD1; assay: CCK-8 in vitro anti-tumor proliferation assay; type: cell-based; conditions: Homo sapiens, DLD-1, 72 hours
Procedure: as §1

[4] = tested on: HCT115; assay: CCK-8 in vitro anti-tumor proliferation assay; type: cell-based; conditions: Homo sapiens; Table 4; 72 hours
Procedure: as §1

[5] = tested on: SW480; assay: CCK-8 in vitro anti-tumor proliferation assay; type: cell-based; conditions: Homo sapiens, Table 4, 72 hours
Procedure: as §1

[6] = tested on: HCT116; assay: CCK-8 in vitro anti-tumor proliferation assay; type: cell-based; conditions: Homo sapiens, HCT-116, 72 hours
Procedure: as §1

[7] = tested on: A172; assay: CCK-8 in vitro anti-tumor proliferation assay; type: cell-based; conditions: Homo sapiens, A 172; Table 3; 72 hours
Procedure: as §1

[8] = tested on: MV-4-11; assay: CCK-8 in vitro anti-tumor proliferation assay; type: cell-based; conditions: Homo sapiens, read-out: IC50(uM) MV-4-11
Procedure: as §1

[9] = tested on: A549; assay: CCK-8 in vitro anti-tumor proliferation assay; type: cell-based; conditions: Homo sapiens, read-out: IC50(uM) A549
Procedure: as §1

[10] = tested on: HT29; assay: CCK-8 in vitro anti-tumor proliferation assay; type: cell-based; conditions: Homo sapiens, HT-29; Table 4; 72 hours
Procedure: as §1

[11] = target: T1, HsClpP (Homo sapiens, UniProt Q16740); assay: Isothermal Titration calorimetry (ITC); type: binding; conditions: FIG. 3
T1 sequence (Q16740 57-277): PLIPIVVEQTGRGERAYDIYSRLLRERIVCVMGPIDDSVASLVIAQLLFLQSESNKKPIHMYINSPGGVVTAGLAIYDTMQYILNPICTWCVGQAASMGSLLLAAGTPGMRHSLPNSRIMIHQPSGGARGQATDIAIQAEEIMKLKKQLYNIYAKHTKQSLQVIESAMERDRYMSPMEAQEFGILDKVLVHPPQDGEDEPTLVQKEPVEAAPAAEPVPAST
Procedure: Isothermal Titration calorimetry experiments can measure the binding affinity between small molecules and proteins. Binding affinity is generally measured and reported through the equilibrium dissociation constant (Kd), where the smaller the Kd value, the higher the binding affinity of the ligand for its target. In the experiment, the loading-samples and proteins were placed in a degassing apparatus at 30° C., with a vacuum degree of 400 mmHg or higher, and degassed for 10 minutes. A 50 mL PBS buffer was prepared, and the sample cell and syringe were rinsed. After rinsing, the liquid in the sample cell was completely removed, and the degassed protein and small molecules were taken out. The sample cell was thoroughly washed with protein, and the syringe was rinsed with the small molecule solution 3-5 times. After washing, 250 μL of protein (0.5 mM) was extracted using the syringe, avoiding the formation of bubbles. Subsequently, 200 μL was injected into the sample cell. 50 μL of the small molecule solution (0.1 mM) was extracted using an injector, again avoiding the formation of bubbles. The titration syringe was loaded onto the instrument, and titration commenced after the instrument was balanced.

[12] = target: T1, HsClpP; assay: HsClpP enzyme hydrolysis of short peptide substrate AC-WLA-AMC; conditions: for Regulatory efficacy 1 μM / Regulatory efficacy 10 μM: promoting hydrolysis of short peptide substrate by HsClpP, relative to blank control
Procedure: This study evaluated the regulatory activity of the compounds on HsClpP by examining the hydrolysis effects of HsClpP protein on the AC-WLA-AMC substrate . […] The small molecules and the HsClpP protein solution were added to a flat-bottomed black 96-well plate, with three replicate wells for each group. […] DMSO was used as a negative control instead of small molecules. The multiple of readings at different concentrations against the readings of DMSO group was recorded as an index for evaluation of hydrolysis activity. . . . GraphPad Prism was used to plot the obtained multiple values and calculate the EC50 values.

[13] = tested on: human normal embryonic kidney cells (HEK293); assay: In vitro cytotoxicity assay, CCK-8; conditions: up to 50μM; FIG. 13
Procedure: (§2) CCK8 and DMSO were products of Sigma. For in vitro experiment, the test compounds were prepared as 10 mM stock solutions in DMSO and stored at −20° C. in the refrigerator in the dark for later use, then diluted to desired concentration with complete culture medium before use. […] The previous culture medium was discarded, fresh culture medium was added to resuspend the cells, and then the cells were counted. According to the growth rate of different cells, the cell seeding concentration was determined, generally being 3000-5000 cells/well. After determining the seeding concentration, the cell suspension was diluted to desired concentrations with fresh culture medium, and then added to a 96-well plate with 100 μL per well, and 200 μL of PBS was added to the edge wells to prevent evaporation of the culture medium. On the second day, drug treatment was performed.

[14] = tested on: rat myocardial cells (H9C2); assay: In vitro cytotoxicity assay, CCK-8; conditions: FIG. 13
Procedure: as §2

[15] = tested on: SDHB and ATF4; assay: Levels of SDHB and ATF4 in HCT116 cells; conditions: dose-dependently; FIG. 7
[16] = tested on: HCT116 cells; assay: Wound-healing cell migration assay; type: cell-based, human; conditions: 24 hours; compared to the control group and the ONC201 group; FIG. 12
Text: Example 12: In vitro Antitumor Cell Migration Assay of Preferred Compound. Studies have shown that increased expression of HsClpP is crucial for the proliferation and migration of certain cancer cell lines, while functional disruption of HsClpP in cancer cells can inhibit cell migration.
Wound-Healingcan be used to detect the invasive ability of adherent tumor cells. By observing the healing ability of tumor cells towards scratches under different conditions, the impact of the compound on the ability of tumor cell migration can be reflected.

[17] = tested on: HCT116 cells; assay: Apoptosis, Annexin V/PI staining; conditions: 1.25 μM; FIG. 10
[18] = tested on: HCT116 CRC xenograft tumors; assay: HCT116 xenograft nude mouse model; conditions: 100 mg/kg oral, twice a week, six doses
Text: (A) Observation of tumor size in mice after treatment; (B) Photographs of excised tumor tissue after treatment; (C) Relative change in mouse body weight during treatment; (D) Relative volume change of tumors during treatment. Measurements were taken every other day; N=6 animals per group.

[19] = Table 3, read-out: IC50(uM) SW620
[20] = Table 4, read-out: IC50 ( M) SW620
[21] = Table 3, read-out: IC50(uM) DLD1
[22] = Table 4, read-out: IC50 ( M) DLD1
[23] = Table 4, read-out: IC50 ( M) HCT116
[24] = Table 5, HCT116, read-out: IC50

| Compound | IC50 [1, 19] [µM] | IC50 [1, 20] [µM] | IC50 ([2]; Table 3, 72 hours) [µM] | IC50 [3, 21] [µM] | IC50 [3, 22] [µM] | IC50 [4] [nM] | IC50 [5] [nM] | IC50 [6, 23] [M] | IC50 [6, 24] [M] | IC50 [7] [µM] | IC50 ([8]; MV4-11, Table 3, 72 hours) [µM] | IC50 ([9]; A549, Table 3, 72 hours) [µM] | IC50 [10] [nM] | Regulatory efficacy 1 μM [12] | Regulatory efficacy 10 μM [12] | further results |
| --- | --- | --- | --- | --- | --- | --- | --- | --- | --- | --- | --- | --- | --- | --- | --- | --- |
| O=c1nc2n(c3c1CN(Cc1ccccc1)CC3)CCN2Cc1ccc(C(F)(F)F)cc1 [Compound 18, 7-benzyl-3-(4-trifluoromethylbenzyl)-2,3,6,7,8,9-hexahydroimidazo[1,2-a]pyrido[3,4-e]pyrimidin-5(1H)-one] | 0.5 |  | 0.1 | 0.15 |  |  |  |  | 3e-07 | 0.2 | 0.05 | 0.2 |  | + + | + + | EC50 [12]: 300 nM |
| Cc1ccccc1CN1C(=O)C2=C(CCN(Cc3ccccc3)C2)N2CCN=C12 [ONC201, reference compound] |  |  |  |  |  |  |  |  |  |  |  |  |  |  |  | IC50 ([2]; 72 h): 2.5 µM; IC50 ([8]; MV4-11, 72 h): 5 µM; IC50 ([9]; A549, 72 h): 10 µM; apoptotic rate [17]: < 4.09%; ATF4 level [15]: ATF4 accumulation; SDHB level [15]: reduction in SDHB level; cytotoxicity on HEK293 cells [13]: no significant cytotoxicity; inhibitory activity on H9C2 cells [14]: no significant inhibitory activity |
| Cc1ccccc1CN1C(=O)C2=C(CCN(Cc3ccccc3)C2)N2CCN=C12 [ONC201·2HCl] |  |  |  |  |  |  |  |  |  |  |  |  |  |  |  | TGI (tumor growth inhibition) [18]: 57% |

Continued, in another order:

| IC50 [1, 19] [µM] | IC50 [1, 20] [µM] | IC50 ([2]; Table 3, 72 hours) [µM] | IC50 [3, 21] [µM] | IC50 [3, 22] [µM] | IC50 [4] [nM] | IC50 [5] [nM] | IC50 [6, 23] [M] | IC50 [6, 24] [M] | IC50 [7] [µM] | IC50 ([8]; MV4-11, Table 3, 72 hours) [µM] | IC50 ([9]; A549, Table 3, 72 hours) [µM] | IC50 [10] [nM] | Regulatory efficacy 1 μM [12] | Regulatory efficacy 10 μM [12] | Compound | further results |
| --- | --- | --- | --- | --- | --- | --- | --- | --- | --- | --- | --- | --- | --- | --- | --- | --- |
| 0.6 | 0.6 | 1 | 0.2 | 0.5 | 1300 | 1100 | 4e-07 | 4e-07 | 0.5 | 0.8 | 2 | 5300 | + + | + + | Cc1ccccc1CN1CCn2c1nc(=O)c1c2CCN(Cc2ccccc2)C1 [Compound 1, 7-benzyl-3-(2-methylbenzyl)-2,3,6,7,8,9-hexahydroimidazo[1,2-a]pyrido[3,4-e]pyrimidin-5(1H)-one] | ITC thermodynamics of titration with HsClpP (AH, AS) [11]: AH<0, AS<0; Kd, affinity for HsClpP ([11]; compared to ONC201): much higher affinity for HsClpP compared to ONC201; EC50 ([12]; excitatory activity on HsClpP): 300 nM; cytotoxicity on HEK293 cells [13]: no significant cytotoxicity; inhibitory activity on H9C2 cells [14]: no significant inhibitory activity |
| 0.15 | 0.09 | 0.1 | 0.2 | 0.09 | 120 | 120 | 9e-08 | 1e-07 | 0.15 | 0.05 | 0.4 | 80 | + + | + + | O=c1nc2n(c3c1CN(Cc1ccccc1)CC3)CCN2Cc1ccc(F)cc1F [Compound 19, 7-benzyl-3-(2,4-difluorobenzyl)-2,3,6,7,8,9-hexahydroimidazo[1,2-a]pyrido[3,4-e]pyrimidin-5(1H)-one] |  |
| 0.14 | 0.15 | 0.1 | 0.5 | 0.15 | 200 | 120 | 1e-07 | 1e-07 | 0.1 | 0.025 | 0.5 | 50 | + + | + + | O=c1nc2n(c3c1CN(Cc1ccccc1)CC3)CCN2Cc1ccc(F)c(F)c1 [Compound 20, 7-benzyl-3-(3,4-difluorobenzyl)-2,3,6,7,8,9-hexahydroimidazo[1,2-a]pyrido[3,4-e]pyrimidin-5(1H)-one] |  |
|  |  |  |  |  |  |  |  |  |  |  |  |  | + + | + + | O=c1nc2n(c3c1CN(Cc1ccccc1)CC3)CCN2Cc1ccc(F)c(Br)c1 [Compound 21, 7-benzyl-3-(3-bromo-4-fluorobenzyl)-2,3,6,7,8,9-hexahydroimidazo[1,2-a]pyrido[3,4-e]pyrimidin-5 (1H)-one] | ITC thermodynamics of titration with HsClpP (AH, AS) [11]: AH<0, AS<0; ATF4 level [15]: ATF4 accumulation; SDHB level [15]: reduction in SDHB level; migration ability of HCT116 cells [16]: significantly inhibited |
